Converted amounts (≈) assume the structure as drawn. Where two headings read alike, the source gives them in different places.

Experiment in all cases: MIC, standard agar-dilution assay
What all share (assay type): cell-based

Assay [1] has as its system Staphylococcus aureus X400. The settings on record: Staphylococcus aureus. The source says: (§1) In addition to excellent in vitro activity against erythromycin-sensitive bacteria, several members of this new series have shown in vitro activity against erythromycin-resistant strains. These include strains which are inducibly-resistant to erythromycin (S. aureus V41 and X400 and S. epidermidis EPI1) and even strains which are constitutively-resistant (S. epidermidis 270).

For assay [2], the system named is Staphylococcus aureus V41. The settings on record: Staphylococcus aureus.
From the text: as §1

Assay [3] deals with Staphylococcus epidermidis 270. The settings on record: Staphylococcus epidermidis, 270; Table IV; constitutively erythromycin-resistant; read-out: minimal inhibitory concentration (MIC).
From the text: as §1

The subject of assay [4] is Klebsiella pneumoniae X68. The settings on record: Klebsiella pneumoniae, X68, agar dilution, read-out: minimal inhibitory concentration (MIC). On the technique in general: In agar dilution the substance is mixed into plates at graded concentrations.
Another assay relates to Escherichia coli EC14. The settings on record: Escherichia coli, EC14, agar dilution, read-out: minimal inhibitory concentration (MIC).
In assay [5] the test system is Staphylococcus aureus X1.1. The settings on record: Staphylococcus aureus, X1.1, read-out: minimal inhibitory concentration (MIC).
In assay [6] the test system is Streptococcus sp. group D X66. The settings on record: Streptococcus, read-out: minimal inhibitory concentration (MIC).
The test system of assay [7] is Staphylococcus epidermidis 222. The settings on record: Staphylococcus epidermidis, 222, read-out: minimal inhibitory concentration (MIC).
Assay [8] deals with Streptococcus sp. group D 2041. The settings on record: Streptococcus, read-out: minimal inhibitory concentration (MIC).
The mark [9] stands for this setting: X400, Table IV, methicillin-resistant strain, inducibly erythromycin-resistant, read-out: minimal inhibitory concentration (MIC).
Setting [10] is: V41, Table IV, penicillin-resistant strain, inducibly erythromycin-resistant, read-out: minimal inhibitory concentration (MIC).

Regarding `CC[C@H]1OC(=O)[C@H](C)[C@@H](O[C@H]2C[C@@](C)(OC)[C@@H](O)[C@H](C)O2)[C@H](C)[C@@H](O[C@@H]2O[C@H](C)C[C@H](N(C)C)[C@H]2O)[C@](C)(O)C[C@@H](C)[C@H](NCC2CC=CCC2)[C@H](C)[C@@H](O)[C@]1(C)O` (some centres unmarked) [Compound 15, 9-Deoxo-9-[(1-cyclohex-4-enylmethyl)amino]erythromycin], the MIC in assay [1] (setting [9]), in assay [2] (setting [10]) and in assay [3] was over 128 µg/mL each time.
For `CCCCCCN[C@@H]1[C@H](C)[C@@H](O)[C@](C)(O)[C@@H](CC)OC(=O)[C@H](C)[C@@H](O[C@H]2C[C@@](C)(OC)[C@@H](O)[C@H](C)O2)[C@H](C)[C@@H](O[C@@H]2O[C@H](C)C[C@H](N(C)C)[C@H]2O)[C@](C)(O)C[C@H]1C` [Compound 6, 9-Deoxo-9-(n-hexylamino)erythromycin], the MIC in assay [1] (setting [9]), in [2] (setting [10]) and in assay [3] was over 128 µg/mL in each case.
`CC[C@H]1OC(=O)[C@H](C)[C@@H](O[C@H]2C[C@@](C)(OC)[C@@H](O)[C@H](C)O2)[C@H](C)[C@@H](O[C@@H]2O[C@H](C)C[C@H](N(C)C)[C@H]2O)[C@](C)(O)C[C@@H](C)[C@H]2[C@H](C)[C@@H](OCN2Cc2ccccc2)[C@]1(C)O` [Compound 62, 9-Deoxo-9-[(benzyl)amino]-9,11-(N,O)-cyclic Methylene Adduct of Erythromycin]: the MIC (in assay [4] (Table V); with Escherichia coli EC14 (Table V)) was over 128 µg/mL each time.
On to `CCC(CC)CN[C@@H]1[C@H](C)[C@@H](O)[C@](C)(O)[C@@H](CC)OC(=O)[C@H](C)[C@@H](O[C@H]2C[C@@](C)(OC)[C@@H](O)[C@H](C)O2)[C@H](C)[C@@H](O[C@@H]2O[C@H](C)C[C@H](N(C)C)[C@H]2O)[C@](C)(O)C[C@H]1C` [Compound 12, 9-Deoxo-9-[(2-ethylbutyl)amino]erythromycin], for which the MIC in [3] is over 128 µg/mL.
Consider `CC[C@H]1OC(=O)[C@H](C)[C@@H](O[C@H]2C[C@@](C)(OC)[C@@H](O)[C@H](C)O2)[C@H](C)[C@@H](O[C@@H]2O[C@H](C)C[C@H](N(C)C)[C@H]2O)[C@](C)(O)C[C@@H](C)[C@H](NCC#Cc2ccccc2)[C@H](C)[C@@H](O)[C@]1(C)O` [Compound 18, 9-Deoxo-9-[(3-phenyl-2-propynyl)amino]erythromycin], for which the MIC in [5] was 1 µg/mL (≈ 1.18 µM); in assay [4] (Table IV), over 128 µg/mL; in assay [6] it was 0.25 µg/mL (≈ 0.294 µM); in assay [7] it was 0.5 µg/mL (≈ 0.589 µM); in the assay on Escherichia coli EC14 (Table IV), over 128 µg/mL; in assay [8] it was 1 µg/mL (≈ 1.18 µM).
On to `CC[C@H]1OC(=O)[C@H](C)[C@@H](O[C@H]2C[C@@](C)(OC)[C@@H](O)[C@H](C)O2)[C@H](C)[C@@H](O[C@@H]2O[C@H](C)C[C@H](N(C)C)[C@H]2O)[C@](C)(O)C[C@@H](C)[C@H](NCCC(C)C)[C@H](C)[C@@H](O)[C@]1(C)O` [Compound 11, 9-Deoxo-9-[(3-methylbutyl)amino]erythromycin], for which the MIC in assay [1] (setting [9]), in [2] (setting [10]) and in [3] was over 128 µg/mL each time.
Regarding `CCN[C@@H]1[C@H](C)[C@@H](O)[C@](C)(O)[C@@H](CC)OC(=O)[C@H](C)[C@@H](O[C@H]2C[C@@](C)(OC)[C@@H](O)[C@H](C)O2)[C@H](C)[C@@H](O[C@@H]2O[C@H](C)C[C@H](N(C)C)[C@H]2O)[C@](C)(O)C[C@H]1C` [Compound 2, (9S)-9-Deoxo-9-(ethylamino)erythromycin], the MIC in assay [1] (setting [9]), in [2] (setting [10]) and in assay [3] was over 128 µg/mL throughout.
Regarding `CCCCCCCCN[C@@H]1[C@H](C)[C@@H](O)[C@](C)(O)[C@@H](CC)OC(=O)[C@H](C)[C@@H](O[C@H]2C[C@@](C)(OC)[C@@H](O)[C@H](C)O2)[C@H](C)[C@@H](O[C@@H]2O[C@H](C)C[C@H](N(C)C)[C@H]2O)[C@](C)(O)C[C@H]1C` [Compound 8, 9-Deoxo-9-(n-octylamino)erythromycin], the MIC (in assay [4] (Table IV); with Escherichia coli EC14 (Table IV)) was over 128 µg/mL in each case.
Regarding `CCCCCCCN[C@@H]1[C@H](C)[C@@H](O)[C@](C)(O)[C@@H](CC)OC(=O)[C@H](C)[C@@H](O[C@H]2C[C@@](C)(OC)[C@@H](O)[C@H](C)O2)[C@H](C)[C@@H](O[C@@H]2O[C@H](C)C[C@H](N(C)C)[C@H]2O)[C@](C)(O)C[C@H]1C` [Compound 7, 9-Deoxo-9-(n-heptylamino)erythromycin], the MIC in assay [1] (setting [9]), in assay [2] (setting [10]), in assay [3] and in assay [4] (Table IV) was over 128 µg/mL each time.
On to `CC[C@H]1OC(=O)[C@H](C)[C@@H](O[C@H]2C[C@@](C)(OC)[C@@H](O)[C@H](C)O2)[C@H](C)[C@@H](O[C@@H]2O[C@H](C)C[C@H](N(C)C)[C@H]2O)[C@](C)(O)C[C@@H](C)[C@H](NCCOCCOC)[C@H](C)[C@@H](O)[C@]1(C)O` [Compound 25, 9-Deoxo-9-[[2-(2-methoxyethoxy)ethyl]amino]erythromycin], for which the MIC in [1] (setting [9]), in assay [2] (setting [10]) and in assay [3] was over 128 µg/mL in each case.
For the compound `CC[C@H]1OC(=O)[C@H](C)[C@@H](O[C@H]2C[C@@](C)(OC)[C@@H](O)[C@H](C)O2)[C@H](C)[C@@H](O[C@@H]2O[C@H](C)C[C@H](N(C)C)[C@H]2O)[C@](C)(O)C[C@@H](C)[C@H]2[C@H](C)[C@@H](OCN2C(C)C)[C@]1(C)O` [Compound 58, 9-Deoxo-9-[isopropylamino]-9,11-(N,O)-cyclic Methylene Adduct of Erythromycin], the MIC in assay [1] (X400, read-out: minimal inhibitory concentration (MIC)) is over 128 µg/mL; in assay [2] (V41, read-out: minimal inhibitory concentration (MIC)) it was over 128 µg/mL.
With `CC[C@H]1OC(=O)[C@H](C)[C@@H](O[C@H]2C[C@@](C)(OC)[C@@H](O)[C@H](C)O2)[C@H](C)[C@@H](O[C@@H]2O[C@H](C)C[C@H](N(C)C)[C@H]2O)[C@](C)(O)C[C@@H](C)[C@H](NCC(C)(C)CO)[C@H](C)[C@@H](O)[C@]1(C)O` [Compound 22, 9-Deoxo-9-[(3-hydroxy-2,2-dimethylpropyl)amino]erythromycin], the MIC in [1] (setting [9]), in assay [2] (setting [10]) and in assay [3] was over 128 µg/mL throughout.
Take `CCCN[C@@H]1[C@H](C)[C@@H](O)[C@](C)(O)[C@@H](CC)OC(=O)[C@H](C)[C@@H](O[C@H]2C[C@@](C)(OC)[C@@H](O)[C@H](C)O2)[C@H](C)[C@@H](O[C@@H]2O[C@H](C)C[C@H](N(C)C)[C@H]2O)[C@](C)(O)C[C@H]1C` [Compound 3, 9-Deoxo-9-(n-propylamino)erythromycin]: the MIC in [1] (setting [9]), in assay [2] (setting [10]) and in [3] was over 128 µg/mL in each case.
For the compound `CC[C@H]1OC(=O)[C@H](C)[C@@H](O[C@H]2C[C@@](C)(OC)[C@@H](O)[C@H](C)O2)[C@H](C)[C@@H](O[C@@H]2O[C@H](C)C[C@H](N(C)C)[C@H]2O)[C@](C)(O)C[C@@H](C)[C@H](NCCCCCO)[C@H](C)[C@@H](O)[C@]1(C)O` [Compound 21, 9-Deoxo-9-[(5-hydroxypentyl)amino]erythromycin], the MIC in assay [1] (setting [9]), in assay [2] (setting [10]) and in [3] was over 128 µg/mL each time.

These data come from patent publication US5110800A, “Derivatives of erythromycylamine” (Eli Lilly and Company, priority 1989, dated 1992).
